Laboratory results reported in ChEMBL document CHEMBL1129617, “Synthesis and antiretroviral evaluation of new alkoxy and aryloxy phosphate derivatives of 3'-azido-3'-deoxythymidine” (J Med Chem, 1996).

What was measured:
[1] = test system: CCRF-CEM; assay: Concentration required to reduce 50% of the number of CEM/O cells in the HIV-1 infected cell cultures.; type: functional, cell-based; conditions: Homo sapiens
[2] = test system: CEM-TK(+); assay: Concentration required to reduce 50% of the number of CEM/TK cells in the HIV-2 infected cell cultures.; type: functional, cell-based; conditions: Homo sapiens
[3] = test system: CCRF-CEM; assay: Concentration required to reduce 50% of the number of CEM/O cells in the HIV-2 infected cell cultures.; type: functional, cell-based; conditions: Homo sapiens
[4] = test system: CCRF-CEM; assay: Concentration required to reduce 50% of the number of CEM/O cells in the mock infected cell cultures.; type: functional; conditions: Homo sapiens
[5] = Selectivity index in the HIV-1 infected cell cultures.; type: functional

SMILES | EC50 [1] | EC50 [2] | EC50 [3] | CC50 [4] | SI [5]
CCCCCCCCCCCCOCCOP(=O)(O)OCC1OC(n2cc(C)c(=O)[nH]c2=O)CC1N=[N+]=[N-] (stereo not drawn) | 115 nM | > 50000 nM | 133 nM | 76900 nM | 669
CCCCCCCCCCCCOC[C@H](C)OP(=O)(O)OCC1OC(n2cc(C)c(=O)[nH]c2=O)CC1N=[N+]=[N-] (stereo partly drawn) | 200 nM | > 50000 nM | 260 nM | 88000 nM | 440
Cc1cn(C2CC(N=[N+]=[N-])C(COP(=O)(O)OCCOc3cccc4ccccc34)O2)c(=O)[nH]c1=O (stereo not drawn) | 13 nM | > 125000 nM | 28 nM | > 125000 nM | >9615
CCCCCCCCCCCCO[C@@H](C)COP(=O)(O)OC[C@H]1O[C@@H](n2cc(C)c(=O)[nH]c2=O)C[C@@H]1N=[N+]=[N-] | 320 nM | > 50000 nM | 350 nM | 94500 nM | 295
CCCCCCCCCCCCOC[C@@H](C)OP(=O)(O)OCC1OC(n2cc(C)c(=O)[nH]c2=O)CC1N=[N+]=[N-] (stereo partly drawn) | 2170 nM | > 50000 nM | 2670 nM | 95900 nM | 44
Cc1cn(C2CC(N=[N+]=[N-])C(COP(=O)(O)OCCOc3ccc4ccccc4c3)O2)c(=O)[nH]c1=O (stereo not drawn) | 15 nM | > 125000 nM | 20 nM | > 125000 nM | >8333
Cc1cn(C2CC(N=[N+]=[N-])C(COP(=O)(O)OCCOc3ccccc3)O2)c(=O)[nH]c1=O (stereo not drawn) | 20 nM | > 125000 nM | 18 nM | > 125000 nM | >6250
CCCCCCCCCCCCO[C@H](C)COP(=O)(O)OCC1O[C@@H](n2cc(C)c(=O)[nH]c2=O)C[C@@H]1N=[N+]=[N-] (single isomer, unassigned) | 500 nM | > 50000 nM | 500 nM | 93000 nM | 186
Cc1cn([C@H]2C[C@H](N=[N+]=[N-])[C@@H](CO)O2)c(=O)[nH]c1=O [ZIDOVUDINE] |  | > 100000 nM |  | > 100000 nM | >16666
